Values after ≈ are worked out from the molar mass of the structure shown.

The results in this text go back to US4303664A, “Novel penicillin derivatives containing a coumarin nucleus and medicines containing the same” (Teijin Limited, priority 1978, dated 1981).

The test system of data set [1] is Pseudomonas aeruginosa 130. In words: Bactericidal test (MIC), Pseudomonas aeruginosa 130. Format: cell-based. The settings on record: (16) Pseudomonas aeruginosa 130. An excerpt: (§1) Results of bactericidal tests (MIC, r/ml) on the penicillin derivatives of this invention prepared in the above examples are shown in the following table.
For the next data set, the system named is Rettgerella var. Tid-21. Briefly: Bactericidal test (MIC), Rettgerella var. Tid-21. The format is cell-based. To be noted: (10) Rettgerella var. Tid-21; read-out: MIC.
Description: as §1

In a further data set the test system is Morganella var. G-2. Briefly: Bactericidal test (MIC), Morganella var. G-2. The format is cell-based. To be noted: VAR.G2; (9) Morganella var. G-2; read-out: MIC.
Description: as §1

A short description of data set [2]: Rates of protein fixation (human serum protein). To be noted: read-out: Rate of protein fixation (converted). The format is in vitro ADME. From the text:
Rates of protein fixation (human serum protein) of the penicillin derivatives of this invention are illustrated as follows: […]

In data set [3] the test system is Staphylococcus aureus 209-p. In words: Bactericidal test (MIC), Staphylococcus aureus 209-p. The format is cell-based. To be noted: (1) Staphylococcus aureus 209-p.
Description: as §1

Data set [4] concerns Klebsiella neumoniae ATCC10031. In words: Bactericidal test (MIC), Klebsiella neumoniae ATCC10031. Format: cell-based. The settings on record: (6) Klebsiella neumoniae ATCC10031; read-out: MIC.
Description: as §1

The test system of data set [5] is Enterobacter cloacae IF012937. In words: Bactericidal test (MIC), Enterobacter cloacae IF012937. The settings on record: (8) Enterobacter cloacae IF012937. Format: cell-based.
Description: as §1

The test system of data set [6] is Escherichia Coli NIHJ JC-2. Briefly: Bactericidal test (MIC), Escherichia Coli NIHJ JC-2. The format is cell-based. The settings on record: NIHJJC2; (5) Escherichia Coli NIHJ JC-2.
Description: as §1

Data set [7] has as its system Pseudomonas aeruginosa 0-37. In words: Bactericidal test (MIC), Pseudomonas aeruginosa 0-37. The settings on record: 037; (13) Pseudomonas aeruginosa 0-37. Format: cell-based.
Description: as §1

Data set [8] deals with Pseudomonas aeruginosa Tid-53. In words: Bactericidal test (MIC), Pseudomonas aeruginosa Tid-53. The format is cell-based. The settings on record: TID53; (14) Pseudomonas aeruginosa Tid-53.
Description: as §1

A further data set has as its system Enterobactor cloacae 147. In words: Bactericidal test (MIC), Enterobactor cloacae 147. The settings on record: (7) Enterobactor cloacae 147. Format: cell-based.
Description: as §1

A further data set concerns Serratia G-18. In words: Bactericidal test (MIC), Serratia G-18. The format is cell-based. To be noted: G18; (11) Serratia G-18; read-out: MIC.
Description: as §1

Data set [9] concerns Pseudomonas aeruginosa IFO-3080. In words: Bactericidal test (MIC), Pseudomonas aeruginosa IFO-3080. The format is cell-based. The settings on record: IFO3080; (12) Pseudomonas aeruginosa IFO-3080; read-out: MIC.
Description: as §1

For data set [10], the system named is Staphylococcus aureus 1248. Briefly: Bactericidal test (MIC), Staphylococcus aureus 1248. The settings on record: (2) Staphylococcus aureus 1248; read-out: MIC. Format: cell-based.
Description: as §1

The next data set relates to Bacillus subtilis. Briefly: Bactericidal test (MIC), Bacillus subtilis. The settings on record: (3) Bacillus subtilis. The format is cell-based.
Description: as §1

The subject of data set [11] is Salmonella typhimurium G-20. In words: Bactericidal test (MIC), Salmonella typhimurium G-20. The format is cell-based. To be noted: Salmonella enterica; (4) Salmonella typhimurium G-20.
Description: as §1

Data set [12] concerns Pseudomonas aeruginosa GN-315. Briefly: Bactericidal test (MIC), Pseudomonas aeruginosa GN-315. Format: cell-based. The settings on record: GN315; (15) Pseudomonas aeruginosa GN-315.
Description: as §1

Data set [13] is described as follows: Acute toxicity values [(LD50), mouse]. To be noted: in vivo. An excerpt: Acute toxicity values [(LD50), mouse] of some penicillin derivatives of this invention are illustrated in the following table.

As a reminder, the MIC is the least concentration at which growth counts as inhibited. Consider `CC1(C)S[C@@H]2[C@H](NC(=O)[C@H](NC(=O)c3cc4cc(Br)ccc4oc3=O)c3ccccc3)C(=O)N2[C@H]1C(=O)O` [Example 3, D(-)-α-(6-Bromocoumarin-3-carbonamido)benzylpenicillin], for which the MIC in data set [1] is 1.56 µg/mL (≈ 2.6 µM); in the data set on Rettgerella var. Tid-21 it was 6.25 µg/mL (≈ 10.4 µM); in the data set with Morganella var. G-2, 6.25 µg/mL (≈ 10.4 µM); in [3], under 0.4 µg/mL; in [4], 1.56 µg/mL (≈ 2.6 µM); in data set [5], 25 µg/mL (≈ 41.6 µM). Further, the MIC in data set [6] was under 0.4 µg/mL; in [7], 25 µg/mL (≈ 41.6 µM); in [8] it was 6.25 µg/mL (≈ 10.4 µM); against Enterobactor cloacae 147, 3.13 µg/mL (≈ 5.21 µM); in the data set with Serratia G-18, 25 µg/mL (≈ 41.6 µM); in data set [9] it was 1.56 µg/mL (≈ 2.6 µM). In addition, the minimal inhibitory concentration (MIC) is 1.56 µg/mL (≈ 2.6 µM) in data set [10], under 0.4 µg/mL with Bacillus subtilis, under 0.4 µg/mL in data set [11] and 6.25 µg/mL (≈ 10.4 µM) in data set [12]. Besides, the fraction unbound in data set [2] was 0.2.
As for `CC1(C)S[C@@H]2[C@H](NC(=O)[C@H](NC(=O)c3cc4ccccc4oc3=O)c3ccc(O)cc3)C(=O)N2[C@H]1C(=O)O` [Example 16, D(-)-α-(Coumarin-3-carbonamido)-p-hydroxybenzylpenicillin], the MIC is 1.56 µg/mL (≈ 2.9 µM) in data set [1]; 1.56 µg/mL (≈ 2.9 µM) in the data set on Rettgerella var. Tid-21; 12.5 µg/mL (≈ 23.3 µM) with Morganella var. G-2; under 0.4 µg/mL in [3]; 6.25 µg/mL (≈ 11.6 µM) in data set [4]; 25 µg/mL (≈ 46.5 µM) in data set [5]. The minimum inhibitory concentration (MIC) in data set [6] was under 0.4 µg/mL; in data set [7], 25 µg/mL (≈ 46.5 µM); in [8], 6.25 µg/mL (≈ 11.6 µM); with Enterobactor cloacae 147, 6.25 µg/mL (≈ 11.6 µM); in the data set with Serratia G-18, 50 µg/mL (≈ 93 µM); in data set [9] it was 0.8 µg/mL (≈ 1.49 µM). Also, the MIC in data set [10] was 1.56 µg/mL (≈ 2.9 µM); against Bacillus subtilis, under 0.4 µg/mL; in [11] it was under 0.4 µg/mL; in data set [12] it was 3.13 µg/mL (≈ 5.82 µM). In [2], the fraction unbound was 0.55.
The term LD50 denotes the dose expected to kill half of the subjects tested. Turning to `COc1cccc2cc(C(=O)N[C@@H](C(=O)N[C@@H]3C(=O)N4[C@@H]3SC(C)(C)[C@@H]4C(=O)O)c3ccc(O)cc3)c(=O)oc12` [Example 18, D(-)-α-(8-Methoxycoumarin-3-carbonamido)-p-hydroxylbenzylpenicillin], the minimum inhibitory concentration (MIC) in data set [1] is 1.56 µg/mL (≈ 2.75 µM); with Rettgerella var. Tid-21 it was 3.13 µg/mL (≈ 5.51 µM); in the data set on Morganella var. G-2 it was 3.13 µg/mL (≈ 5.51 µM); in data set [3] it was under 0.4 µg/mL; in [4] it was 0.8 µg/mL (≈ 1.41 µM); in data set [5], 3.13 µg/mL (≈ 5.51 µM). For the same compound, the minimum inhibitory concentration (MIC) in [6] was under 0.4 µg/mL; in [7], 12.5 µg/mL (≈ 22 µM); in [8] it was 3.13 µg/mL (≈ 5.51 µM); against Enterobactor cloacae 147, 3.13 µg/mL (≈ 5.51 µM); in the data set with Serratia G-18 it was 6.25 µg/mL (≈ 11 µM); in data set [9], 0.8 µg/mL (≈ 1.41 µM). In addition, the MIC was 1.56 µg/mL (≈ 2.75 µM) in [10], under 0.4 µg/mL in the data set on Bacillus subtilis, under 0.4 µg/mL in [11] and 3.13 µg/mL (≈ 5.51 µM) in data set [12]. The LD50 was over 4000 mg/kg in data set [13] (Oral) and 2000 mg/kg in data set [13] (ip, Intraabdominal).
`CC1(C)S[C@@H]2[C@H](NC(=O)[C@H](NC(=O)c3cc4ccccc4oc3=O)c3ccccc3)C(=O)N2[C@H]1C(=O)O` [Example 1, D(-)-α-(Coumarin-3-carbonamido)benzylpenicillin]: the minimal inhibitory concentration (MIC) in [1] was under 0.4 µg/mL; in the data set on Rettgerella var. Tid-21 it was 1.56 µg/mL (≈ 2.99 µM); in the data set on Morganella var. G-2 it was 3.13 µg/mL (≈ 6 µM); in [3], under 0.4 µg/mL; in data set [4] it was under 0.4 µg/mL; in [5], 6.25 µg/mL (≈ 12 µM). Further, the MIC in data set [6] was under 0.4 µg/mL; in data set [7] it was 12.5 µg/mL (≈ 24 µM); in data set [8] it was 3.13 µg/mL (≈ 6 µM); against Enterobactor cloacae 147, 3.13 µg/mL (≈ 6 µM); in the data set with Serratia G-18, 12.5 µg/mL (≈ 24 µM); in data set [9] it was under 0.4 µg/mL. Moreover, the MIC is 1.56 µg/mL (≈ 2.99 µM) in data set [10], under 0.4 µg/mL with Bacillus subtilis, under 0.4 µg/mL in data set [11] and 1.56 µg/mL (≈ 2.99 µM) in data set [12]. For the same compound, in data set [13] (Oral), the LD50 was over 4000 mg/kg.
